Laboratory results published in ChEMBL document CHEMBL1201862, “PubChem BioAssay data set” (2004).
Calls of active or inactive are those of the source.

Columns and labels:
H9c2 = test: cells; format: functional, cell-based; details: Rattus norvegicus, H9c2, Myocardium;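 further: confirmatory concentration-response retest of ultra-high-throughput screening hits for modulation of myocardial damage; cell death induced by hydrogen peroxide oxidative stress; compound pretreatment for 60 min then peroxide exposure for 2 h; potency is for protecting the cells against peroxide damage rather than for killing them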
[1] = molecular target: T1, Corticotropin-releasing factor receptor 2/Corticotropin-releasing factor-binding protein (Homo sapiens, UniProt P24387+Q13324); test: activators of CRF receptor 2 with binding protein – uHTS hits, confirmation (AID 602473); format: functional; details: read-out: EC50_Mean
T1 sequence (Q13324 whole entry): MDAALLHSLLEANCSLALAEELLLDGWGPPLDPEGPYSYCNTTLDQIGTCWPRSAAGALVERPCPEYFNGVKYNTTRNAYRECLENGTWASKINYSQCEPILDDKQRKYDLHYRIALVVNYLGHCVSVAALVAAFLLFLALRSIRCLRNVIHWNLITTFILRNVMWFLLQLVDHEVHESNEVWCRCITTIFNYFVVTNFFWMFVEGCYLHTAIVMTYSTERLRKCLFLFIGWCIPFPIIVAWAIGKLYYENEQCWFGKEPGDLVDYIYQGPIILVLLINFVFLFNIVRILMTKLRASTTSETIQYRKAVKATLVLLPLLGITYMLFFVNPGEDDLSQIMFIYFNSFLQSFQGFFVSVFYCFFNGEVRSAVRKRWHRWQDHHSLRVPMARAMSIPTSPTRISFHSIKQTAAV
T1 sequence (P24387 whole entry): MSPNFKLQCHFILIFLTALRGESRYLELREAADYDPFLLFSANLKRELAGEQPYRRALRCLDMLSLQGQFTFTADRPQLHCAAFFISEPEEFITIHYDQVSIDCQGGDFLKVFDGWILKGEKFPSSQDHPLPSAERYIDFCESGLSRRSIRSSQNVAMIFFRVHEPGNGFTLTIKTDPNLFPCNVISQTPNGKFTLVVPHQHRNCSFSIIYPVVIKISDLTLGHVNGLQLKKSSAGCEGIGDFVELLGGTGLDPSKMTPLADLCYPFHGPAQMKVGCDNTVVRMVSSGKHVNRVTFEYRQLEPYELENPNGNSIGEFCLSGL

[2] = molecular target: T1, Corticotropin-releasing factor receptor 2/Corticotropin-releasing factor-binding protein; test: Dose Response confirmation of uHTS hits for small molecule antagonists of the CRF-binding protein and CRF-R2 receptor complex.; format: functional; details: read-out: IC50_Mean
[3] = molecular target: T2, Short transient receptor potential channel 4 (Mus musculus, UniProt Q9QUQ5); test: block of DAMGO-driven TRPC4 calcium entry – cell-based, HEK293 TRPC4/mu-opioid, Fluo-4 calcium, dose response (AID 434942); format: functional;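 further: potency of inhibitors blocking the TRPC4 calcium response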
T2 sequence (Q9QUQ5 whole entry): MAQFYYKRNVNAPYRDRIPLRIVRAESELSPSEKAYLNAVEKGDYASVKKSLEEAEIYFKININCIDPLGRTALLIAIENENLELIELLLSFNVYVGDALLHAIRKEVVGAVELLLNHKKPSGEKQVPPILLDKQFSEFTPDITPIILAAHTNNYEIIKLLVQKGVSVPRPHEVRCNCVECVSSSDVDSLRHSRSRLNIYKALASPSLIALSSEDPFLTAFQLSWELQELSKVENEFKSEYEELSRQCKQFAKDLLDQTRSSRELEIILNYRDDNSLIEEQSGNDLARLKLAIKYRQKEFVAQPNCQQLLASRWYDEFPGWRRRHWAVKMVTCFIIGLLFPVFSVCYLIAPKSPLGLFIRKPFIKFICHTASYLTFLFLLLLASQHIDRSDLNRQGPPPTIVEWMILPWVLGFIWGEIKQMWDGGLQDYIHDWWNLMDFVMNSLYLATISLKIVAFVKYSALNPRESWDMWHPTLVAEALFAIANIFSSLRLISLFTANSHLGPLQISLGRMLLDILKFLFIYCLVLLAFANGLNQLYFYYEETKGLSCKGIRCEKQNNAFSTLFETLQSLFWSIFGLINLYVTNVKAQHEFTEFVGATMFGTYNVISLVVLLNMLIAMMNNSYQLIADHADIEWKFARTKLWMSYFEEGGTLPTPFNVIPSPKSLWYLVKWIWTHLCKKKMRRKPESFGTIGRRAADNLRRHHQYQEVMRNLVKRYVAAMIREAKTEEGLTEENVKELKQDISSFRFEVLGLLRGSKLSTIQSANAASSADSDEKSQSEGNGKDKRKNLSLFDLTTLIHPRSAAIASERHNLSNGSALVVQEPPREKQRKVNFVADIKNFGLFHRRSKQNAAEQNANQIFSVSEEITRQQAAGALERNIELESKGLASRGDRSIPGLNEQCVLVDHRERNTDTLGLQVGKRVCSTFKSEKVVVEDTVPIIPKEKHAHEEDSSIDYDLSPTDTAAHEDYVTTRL

[4] = Luminescence Cell-Based Dose Confirmation HTS to Identify Inhibitors of Platelet Dense Granule Release. [Related pubchem assays: 1663 (Primary HTS), 1678 (Summary of Project)]; format: functional
[5] = molecular target: Luciferin 4-monooxygenase (Photinus pyralis, UniProt P08659); test: inhibition of purified Photinus pyralis luciferase – biochemical, luminescence, dose response (AID 1891)
Chain of Luciferin 4-monooxygenase (P08659 whole entry): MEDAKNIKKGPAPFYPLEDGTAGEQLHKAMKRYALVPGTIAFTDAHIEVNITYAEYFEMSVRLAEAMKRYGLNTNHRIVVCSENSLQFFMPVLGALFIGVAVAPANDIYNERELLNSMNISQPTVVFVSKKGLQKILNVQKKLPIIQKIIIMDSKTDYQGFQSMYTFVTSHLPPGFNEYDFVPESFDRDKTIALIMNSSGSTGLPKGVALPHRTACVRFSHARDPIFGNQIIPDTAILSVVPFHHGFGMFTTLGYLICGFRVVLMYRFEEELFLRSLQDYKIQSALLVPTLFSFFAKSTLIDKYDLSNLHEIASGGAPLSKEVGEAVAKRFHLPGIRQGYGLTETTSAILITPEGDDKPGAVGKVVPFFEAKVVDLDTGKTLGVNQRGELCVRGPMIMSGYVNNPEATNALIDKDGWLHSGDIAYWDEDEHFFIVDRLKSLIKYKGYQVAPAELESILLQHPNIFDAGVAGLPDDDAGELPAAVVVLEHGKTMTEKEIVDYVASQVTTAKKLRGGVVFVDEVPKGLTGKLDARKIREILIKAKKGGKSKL

Large T antigen = Large T antigen (Simian virus 40, UniProt P03070); format: functional, Betapolyomavirus macacae;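 further: Confirmatory-stage PubChem screen for compounds that inhibit SV40 T antigen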
Chain of Large T antigen (P03070 whole entry): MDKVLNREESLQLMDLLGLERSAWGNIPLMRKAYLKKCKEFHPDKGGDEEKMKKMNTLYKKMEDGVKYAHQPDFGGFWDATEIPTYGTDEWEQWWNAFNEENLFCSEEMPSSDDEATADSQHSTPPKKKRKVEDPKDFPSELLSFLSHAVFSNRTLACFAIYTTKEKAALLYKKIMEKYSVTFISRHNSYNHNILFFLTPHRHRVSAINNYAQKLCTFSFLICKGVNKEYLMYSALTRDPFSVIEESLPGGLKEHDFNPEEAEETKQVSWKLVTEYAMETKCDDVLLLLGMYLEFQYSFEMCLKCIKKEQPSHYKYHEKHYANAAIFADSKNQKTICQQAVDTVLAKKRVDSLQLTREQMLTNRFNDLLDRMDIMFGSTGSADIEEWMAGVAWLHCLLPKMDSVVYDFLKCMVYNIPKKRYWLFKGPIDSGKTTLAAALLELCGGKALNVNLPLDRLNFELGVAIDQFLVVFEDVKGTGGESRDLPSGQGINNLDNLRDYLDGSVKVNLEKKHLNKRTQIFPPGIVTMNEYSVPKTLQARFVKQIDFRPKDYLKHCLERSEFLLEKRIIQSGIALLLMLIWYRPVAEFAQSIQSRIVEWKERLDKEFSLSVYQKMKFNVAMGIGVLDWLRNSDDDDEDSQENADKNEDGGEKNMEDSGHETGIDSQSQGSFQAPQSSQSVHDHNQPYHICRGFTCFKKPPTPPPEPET

[6] = microbe, parasite or virus in culture; format: functional; details: Mycobacterium tuberculosis
[7] = molecular target: T3, Zinc finger protein mex-5 (Caenorhabditis elegans, UniProt Q9XUB2); test: potency of MEX-5 RNA-binding blockers – biochemical, C. elegans, fluorescence polarization, dose response (AID 1960)
T3 sequence (Q9XUB2 whole entry): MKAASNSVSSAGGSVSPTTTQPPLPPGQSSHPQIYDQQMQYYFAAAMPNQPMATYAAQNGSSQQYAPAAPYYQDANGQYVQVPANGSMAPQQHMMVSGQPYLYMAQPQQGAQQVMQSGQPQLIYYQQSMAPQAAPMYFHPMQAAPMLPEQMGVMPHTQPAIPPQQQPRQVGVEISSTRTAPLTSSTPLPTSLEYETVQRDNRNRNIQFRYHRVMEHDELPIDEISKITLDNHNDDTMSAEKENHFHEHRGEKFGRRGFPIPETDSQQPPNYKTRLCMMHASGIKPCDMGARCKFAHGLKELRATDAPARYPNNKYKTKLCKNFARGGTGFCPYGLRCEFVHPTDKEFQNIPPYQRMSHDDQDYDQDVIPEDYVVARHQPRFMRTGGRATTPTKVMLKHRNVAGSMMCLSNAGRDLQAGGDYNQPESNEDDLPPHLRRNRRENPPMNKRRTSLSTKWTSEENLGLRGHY

[8] = molecular target: T4, RNA-binding protein pos-1 (Caenorhabditis elegans, UniProt G5EF15); test: disruptors of C. elegans POS-1 RNA interaction – biochemical, fluorescence polarization, dose response (AID 1964);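 further: purified POS-1 fused to maltose binding protein made in E. coli; potency of compounds blocking POS-1 binding to fluorescent RNA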
T4 sequence (G5EF15 whole entry): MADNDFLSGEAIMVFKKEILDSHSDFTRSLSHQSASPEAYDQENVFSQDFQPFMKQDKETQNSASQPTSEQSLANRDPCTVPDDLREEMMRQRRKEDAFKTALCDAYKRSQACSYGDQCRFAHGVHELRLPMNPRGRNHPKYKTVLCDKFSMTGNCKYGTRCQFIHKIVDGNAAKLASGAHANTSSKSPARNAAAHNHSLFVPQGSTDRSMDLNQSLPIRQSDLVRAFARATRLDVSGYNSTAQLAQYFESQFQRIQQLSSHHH

[9] = reduction of Shn3 3'UTR-driven luciferase in osteoblasts – cell-based, Clone20 osteoblasts, firefly luciferase, cherry-picked, dose response (AID 624132); format: functional;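 further: firefly luciferase luminescence from reporter carrying the Shn3 3'UTR in osteoblasts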
[10] = loss of viability in HepG2 cells – cell-based, CellTiter-Glo, cherry-picked, cytotoxicity control for Shn3 inhibitor project, dose response (AID 624134); format: functional
[11] = non-specific 3'UTR reporter inhibition in Clone20-Shn3RL – cell-based, Renilla luciferase, cherry-picked, counter-screen for Shn3 inhibitor project, dose response (AID 624133); format: functional
Paired box protein Pax-8 = Paired box protein Pax-8 (Homo sapiens, UniProt Q06710); test: PAX8 transcriptional activity inhibition in RMG-I – RMG-I cells, luciferase, cherry-pick, dose response (AID 687027); format: functional, cell-based;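 further: luciferase reporter driven by Pax8 target thyroperoxidase promoter measured by SteadyGlo luminescence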
Chain of Paired box protein Pax-8 (Q06710 whole entry, the tested form may be a part): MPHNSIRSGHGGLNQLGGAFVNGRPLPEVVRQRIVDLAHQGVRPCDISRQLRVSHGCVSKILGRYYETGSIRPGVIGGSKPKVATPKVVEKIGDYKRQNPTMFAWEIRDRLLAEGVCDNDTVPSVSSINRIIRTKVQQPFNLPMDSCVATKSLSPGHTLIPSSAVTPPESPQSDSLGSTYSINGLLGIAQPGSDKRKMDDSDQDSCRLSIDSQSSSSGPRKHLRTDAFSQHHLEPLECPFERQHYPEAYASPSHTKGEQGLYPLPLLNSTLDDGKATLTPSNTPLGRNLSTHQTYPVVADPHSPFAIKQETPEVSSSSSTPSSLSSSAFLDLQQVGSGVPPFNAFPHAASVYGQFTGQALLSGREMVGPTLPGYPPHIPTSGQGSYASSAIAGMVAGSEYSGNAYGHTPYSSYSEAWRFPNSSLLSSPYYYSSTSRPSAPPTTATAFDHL

[12] = blockers of HIV-1 envelope-mediated cell-cell fusion – cherry-pick, dose response (AID 652057); format: functional, cell-based

CC(C)(C)NC(=O)c1cccc(NC(=O)c2ccc(NC(=O)c3ccco3)cc2)c1
IC50 (H9c2): > 79 µM (inactive)

COc1ccc(SCC(=O)Nc2ccccc2Cl)cc1
EC50 [1]: > 53 µM (inactive) | IC50 [2]: > 47.1 µM (inactive)

CCCN1CN(Cc2ccco2)c2nc3ccccc3n2C1
EC50 [3]: 1.88 µM (active)

COc1cccc(C(=O)NCc2nnc(SCC(=O)Nc3nccs3)n2-c2ccccc2)c1
EC50 [4]: > 112 µM (not active) | EC50 [5]: > 112 µM (not active)

CN(C)c1ccc(NC(=O)CN2C3CCCC2CC(NC(=O)c2ccccc2)C3)cc1 (stereo not drawn)
IC50 (Large T antigen): 7.46 µM (active) | EC50 [3]: 3.35 µM (active)

Cc1ccc(-c2nnc(SCC(=O)N3CCN(c4ccccc4)CC3)o2)cc1
EC50 [1]: > 53 µM (inactive) | IC50 [2]: > 47.1 µM (inactive)

CCN(Cc1ccccc1)C(=O)c1cc2c(=O)oc3ccc(C)cc3c2s1
IC50 (H9c2): > 79 µM (inactive)

COc1cc(OC)c(C2N(C)c3ccccc3N2C)cc1OC
EC50 [3]: 1.33 µM (active)

CN(C(=S)NC(=O)c1ccc(Cl)cc1)C1CCCCC1
CC50 [6]: > 40 µM (active)

CC(=O)c1c(S)nc(-c2ccccc2)nc1N1CCN(C)CC1
EC50 [4]: > 112 µM (not active) | EC50 [5]: > 112 µM (not active)

O=C1N=C(N2CCOCC2)S/C1=C\c1ccc(-c2ccccc2Cl)o1
EC50 [7]: > 300 µM (not active) | EC50 [8]: > 300 µM (not active)

COc1ccccc1CN1CCCC(C(=O)N(C)Cc2ccccc2)C1 (stereo not drawn)
EC50 [1]: > 53 µM (inactive) | IC50 [2]: > 47.1 µM (inactive)

CC(C)CC(C(=O)Nn1cnnc1)N1C(=O)c2ccccc2C1=O (stereo not drawn)
EC50 [1]: > 53 µM (inactive) | IC50 [2]: > 47.1 µM (inactive)

COc1ccc(-c2nc(NC(=O)Cn3ccc(C(F)(F)F)n3)sc2C)cc1
CC50 [6]: > 40 µM (active)

O=C(COc1ccccc1[N+](=O)[O-])Nc1ccc(N2CCN(C(=O)c3cccs3)CC2)cc1
IC50 (H9c2): > 79 µM (inactive)

O=C(NCCCN1CCOCC1)c1ccccc1
EC50 [4]: > 112 µM (not active) | EC50 [5]: > 112 µM (not active)

CCN1C(=O)C(=Cc2ccc(N3CCOCC3)o2)C(=O)N(CC)C1=S
EC50 [7]: > 300 µM (inconclusive) | EC50 [8]: > 300 µM (not active)

COc1ccc(S(=O)(=O)NNC(=O)C(=O)NNc2ccccn2)cc1
EC50 [8]: > 300 µM (not active)

Cc1cccc(OCC(=O)N2CCN(C(=O)c3cccs3)CC2)c1
EC50 [4]: > 112 µM (not active) | EC50 [5]: > 112 µM (not active)

Cc1ccc(N(CCC#N)C(=O)CSc2nc(O)c3ccccc3n2)cc1
IC50 (H9c2): 35.4 µM (inactive)

COC(=O)c1cc(-n2cccc2)ccc1N1CCOCC1
EC50 [7]: > 300 µM (not active) | EC50 [8]: > 300 µM (not active)

O=C(Nc1ccc(F)cc1)N1CCN2C(=O)c3ccccc3C12c1ccccc1 (stereo not drawn)
EC50 [3]: 1.68 µM (active)

OC(C#Cc1ccccn1)c1cccs1 (stereo not drawn)
EC50 [7]: 27.4 µM (inconclusive) | EC50 [8]: 33.4 µM (active)

CC(=O)Nc1ccc(N2C(C(C)=O)=NN(c3ccc(Cl)cc3)C2c2sccc2C)cc1 (stereo not drawn)
CC50 [6]: > 40 µM (active)

COCCn1c(SCc2cccc([N+](=O)[O-])c2)nc2ccccc2c1=O
EC50 [3]: 1.68 µM (active)

CC(C)=CCN1CCN(Cc2cccc3nonc23)CC1CCO (stereo not drawn)
EC50 [3]: 2.99 µM (active)

Cc1ccc(Cn2c(CCNc3nc(-c4ccc(Cl)c([N+](=O)[O-])c4)cs3)nc3cc(C(=O)NCCCO)ccc32)cc1
IC50 (H9c2): 47.7 µM (inactive)

O=C(CCN1CCc2ccccc2C(O)(c2ccccc2)C1)c1ccc2c(c1)OCCO2 (stereo not drawn)
AC50 [9]: 23.1 µM (active) | AC50 [10]: 63.3 µM (active) | AC50 [11]: 11.4 µM (active) | EC50 [3]: 8.41 µM (active)

Cn1c2ccccc2c(=O)c2ccc(NCc3ccc4c(c3)OCO4)cc21
IC50 (H9c2): 15.2 µM (active)

Cc1ccc(S(=O)(=O)N2[C@@H](c3ccc(Br)cc3)C(C(=O)O)=CC[C@H]2c2cccc(C)c2)cc1
EC50 [1]: > 53 µM (inactive) | IC50 [2]: > 47.1 µM (inactive)

C[C@@H]1CCCCO[C@@H](CN(C)CC2CC2)[C@@H](C)CN([C@H](C)CO)C(=O)c2cc(N(C)C)ccc2O1
EC50 [1]: > 53 µM (inactive) | IC50 [2]: > 47.1 µM (inactive)

Cc1cnc(C=O)c2cccc([N+](=O)[O-])c12
IC50 (H9c2): > 79 µM (inactive)

COc1ccc(/C(O)=C/C=N/c2ccc([N+](=O)[O-])cc2C)c(OC)c1
EC50 [7]: > 300 µM (not active) | EC50 [8]: > 300 µM (not active)

O=C(C1CCC1)N1CCCCN2[C@H](CO)[C@H](c3ccc(-c4cccc(F)c4)cc3)[C@H]2C1
AC50 (Paired box protein Pax-8): 19.1 µM (active)

C[C@H]1CN([C@@H](C)CO)C(=O)c2ccccc2-c2ccccc2CO[C@H]1CN(C)S(=O)(=O)c1ccc(C(F)(F)F)cc1
AC50 (Paired box protein Pax-8): 9.62 µM (active)

CCCNC(=O)C[C@@H]1C[C@H]2c3cc(NC(=O)Cc4ccncc4)ccc3O[C@H]2[C@@H](CO)O1
AC50 [12]: 55.2 µM (active)

N#CC(C#N)=Cc1ccc(N2CCOCC2)cc1
EC50 [7]: > 300 µM (not active) | EC50 [8]: > 300 µM (inconclusive)

O=C1CCc2ccc(OCCCCN3CCN(c4cccc(Cl)c4Cl)CC3)cc2N1 [ARIPIPRAZOLE]
CC50 [6]: 29.4 µM (active)
